Patent publication US11000515B2, “Compounds that interact with the Ras superfamily for the treatment of cancers, inflammatory diseases, rasopathies, and fibrotic disease” (Shy Therapeutics LLC, priority 2017, dated 2021)

How the values were obtained:
[1] = tested on: MAPK phosphorylation in the PANC-1 pancreatic cancer cell line; assay: MAPK cell-based phosphorylation assay (cell-direct ELISA, EGF-stimulated PANC-1); settings: Homo sapiens; for inhibition at 30 µM: PANC-1, 6 hours incubation, EGF stimulation; for inhibition at 10 µM: tested at 10 μM (*), PANC-1
Procedure: Cell lines: Tumor-derived pancreatic cancer cell lines PANC-1 were purchased from ATCC and were maintained according to ATCC recommendation.
Method: Cells were plated at 7500 cells/well density in 96-wells plate, starved over night, and the small molecules to be tested were added to the cells in the final concentration of 30 μM with 0.3% DMSO for 6 hours incubation at 37° C. For IC50 value determination, serial dilutions of compounds were added to cells under the same conditions. Next, cells were stimulated with 1.5 ng/ml EGF for 15 min. followed by cell fixation with 4% Formaldehyde in PBS at RT for 20 min. Phosphorylation level of MAPK was determined by Cell-direct ELISA.
Cell-direct ELISA: For each well, cells were permeabilized with PBS-Triton 0.1%, quenched with H2O2 0.6% in PBS-Triton 0.1%, and probed with anti-phospho-MAPK antibodies (R&D Systems) followed by HRP-conjugated secondary antibody (Jackson Immunoresearch, West Grove, Pa.). Next, a solution 50 μM of the fluorescent substrate AmpliFlu Red (Sigma) was added and incubated at RT for 20 min. At the end of the incubation time, fluorescence was measured at 595 nm on a microplate reader (AF2200; Eppendorf, Inc., Hamburg, Germany).

[2] = tested on: MIA-PACA2 pancreatic cancer cell lines; assay: Cell proliferation assay, MIA-PACA2 (CellTiter 96 AQueous One, 6 days); type: cell-based; settings: Homo sapiens, MIA PaCa-2, 144 h
Procedure: (§1) Cell lines: Tumor-derived pancreatic cancer cell lines MIA-PACA2 were purchased from ATCC and grown in complete DMEM-High Glucose medium supplemented with penicillin (100 U/mL), streptomycin (100 μg/mL), and 10% heat-inactivated FBS at 37° C. in a humidified incubator with 5% CO2.
Method: Cells are plated at 1000 cells/well density in 96-wells plate, starved ON, and the next day tested small molecules are added to the cells in the final concentration of 30 μM with 0.3% DMSO 3 hours prior to 10% FBS addition. After serum addition cells are incubated for 6 days at 37° C. in a humidified incubator with 5% CO2. For IC50 value determination, serial dilutions of compounds were added to cells under the same conditions.
Assay: At the end of the incubation period, cell cultures are tested using the CellTiter 96® AQueous One Solution Cell Proliferation Assay kit (Promega Corporation, Madison, Wis.) according to the manufacturer specifications. Briefly, assay is performed by adding 20 μl of the CellTiter 96 Aqueous One Solution Reagent directly to culture wells, followed by for 1-4 hours incubation at 37° C. in a humidified incubator with 5% CO2. At the end of incubation time, absorbance at 492 nm is recorded with the 96-well plate reader Eppendorf AF2200, and degree of small molecule-dependent proliferation inhibition is calculated from raw data assuming No Serum cells value as 100%.

[3] = tested on: MIA-PACA2 pancreatic cancer cell lines; assay: Cell proliferation assay, MIA-PACA2, alternate assay conditions (DAPI staining, 4 days); type: cell-based; settings: Homo sapiens; for inhibition at 10 µM: MIA PaCa-2, 96 h, tested at 10 μM (*), 4 days, alternate conditions
Procedure: as §1
Method: Cells are plated at 4000 cells/well density in 96-wells plate. The next day tested small molecules are added to the cells in the final concentration of 10 μM in the presence of 0.3% DMSO and 10% FBS. After small molecules addition, cells are incubated for 4 days at 37° C. in a humidified incubator with 5% CO2. For IC50 value determination, serial dilutions of compounds were added to cells under the same conditions.
Assay: At the end of the incubation period, cell cultures are fixed with a 50-50 mixture (v/v) acetone-methanol for 10 minutes at −20° C., followed by rehydration in PBS for 10 minutes at room temperature. After rehydration, cells are stained with DAPI (1 μg/ml) in PBS for 10 minutes at room temperature, followed by 3 washes with PBS. After staining, DAPI fluorescence is recorded (358 nm excitation/461 nm emission) with the 96-well plate reader Molecular Devices Spectramax M3; degree of small mole-cule-dependent proliferation inhibition is calculated from raw data assuming No Serum cells value as 100%.

Rho-A = Rho-A (Homo sapiens (Human), UniProt P61586); assay: Rac and Rho inhibition assay (labeled GTP); type: binding; settings: read-out: Rho-A % Inh.
Rac-1 = Rac-1 (Homo sapiens (Human), UniProt P63000); assay: Rac and Rho inhibition assay (labeled GTP); type: binding; settings: read-out: Rac-1 % Inh.
[4] = molecular target: KRas G12D/Q61H double mutant (Homo sapiens (Human), UniProt P01116, G12D/Q61H); assay: Ras GTP binding domain inhibition assay (labeled GTP); settings: at 20 μM; read-out: KRas Gl2D Q61H % Inh.
Procedure: Buffer-I: • 50 mM Tris, pH 7.5 • 150 mM NaCl (optional) • 1 mM MgCl2 • 1 mM DTT. • KRas G12D mutant protein was expressed as a His-tagged protein. Purified His-KRas G12D protein was diluted in buffer-I to a final concentration of 3-10 μg/ml. • 200 μl of the diluted His-KRas G12D protein was added to a nickel coated 96 well plate and incubated overnight at 4° C. • The next day, wells were washed 3× in 200 μl of Buffer-I. • Then 200 μl of Buffer-I were added to each well in the presence of 1% DMSO. • Tested compounds were added to the protein-coated wells at a concentration of 20 μM, and incubated for 3 hours at room temperature. While performing IC50 measurements a serial dilution of all tested concentrations was prepared.
Then 22 μl of Cy3-GTP or Cy5-GTP was added to each well. The labeled GTP was incubated for 45 min. at room temperature. • Following GTP incubation, wells were washed 3× in Buffer-I, and 200 μl of Buffer-I were added to each well. • Following washes, the amount of bound labeled-GTP was measured with an Eppendorf AF2200 plate reader.
By substituting KRas G12D mutant protein with KRas G12C mutant, KRas wild type, KRas Q61H mutant, KRas G12D/Q61H double mutant or KRas G12C/Q61H double mutant under the assay conditions described above, KRas G12C mutant KRas wild type, KRas Q61H mutant, KRas G12D/Q61H double mutant and KRas G12C/Q61H double mutant inhibition, respectively, were each determined.

Sequence of Rho-A (P61586 whole entry): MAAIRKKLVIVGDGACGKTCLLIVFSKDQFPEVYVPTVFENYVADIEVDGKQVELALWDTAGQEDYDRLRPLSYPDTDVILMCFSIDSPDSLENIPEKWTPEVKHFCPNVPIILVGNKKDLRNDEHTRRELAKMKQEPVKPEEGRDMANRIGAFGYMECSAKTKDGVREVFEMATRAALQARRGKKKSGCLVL
Sequence of KRas G12D/Q61H double mutant (P01116-2 other isoform, or with tags, fused parts or gaps G12D/Q61H): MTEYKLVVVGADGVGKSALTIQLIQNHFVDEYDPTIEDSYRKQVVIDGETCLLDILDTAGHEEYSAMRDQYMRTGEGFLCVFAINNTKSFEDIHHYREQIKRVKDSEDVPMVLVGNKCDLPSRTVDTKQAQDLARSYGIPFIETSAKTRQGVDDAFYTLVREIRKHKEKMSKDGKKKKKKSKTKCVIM

Cc1nc(-c2ccccn2)nc(O)c1CCC(=O)Nc1ccc(C(C)C)cc1
inhibition at 30 µM [1]: 1 to 25%

COC(=O)c1cc(NCc2nc(CC(C)C)no2)ccc1Cl
inhibition at 30 µM [1]: 1 to 25%

N#Cc1ccc(CC(=O)Nc2ccnc(-c3ccccn3)n2)cc1
inhibition at 30 µM [1]: 1 to 25%

COOCCCCNC(=O)c1csc2nc(-c3ccccn3)nc(N3CCOCC3)c12
inhibition at 30 µM [1]: 1 to 25%

Oc1nc(-c2ccccn2)nc2c(-c3ccccn3)csc12
inhibition at 10 µM [1]: 76 to 100%

COc1ccc(CCC(=O)Nc2nc(-c3ccccn3)nc3sccc23)cn1
inhibition at 10 µM [1]: 76 to 100%

Cn1ccnc1-c1nc(O)c2scc(-c3cccc(OC(F)(F)F)c3)c2n1
inhibition at 10 µM [1]: 25 to 50%

O=C(Nc1nnc(-c2ccccn2)[nH]1)c1ccc(Cc2ccccc2)nc1
inhibition at 30 µM [2]: 51 to 75%

OCCn1ncc2c1CCCC2Nc1nc(-c2ccccn2)nc2scc(-c3ccccc3)c12 (stereo not shown)
inhibition at 30 µM [2]: 76 to 100%

CN(CCCc1n[nH]c(N)c1C#N)c1nc(-c2ccccn2)nc2sc(-c3ccccc3)cc12
inhibition at 30 µM [2]: 76 to 100%

NC(=O)C1CCN(c2nc(-c3ccccn3)nc3scc(-c4ccccc4)c23)CC1
inhibition at 30 µM [2]: 76 to 100%

COc1cnc(CN)[nH]c1=O
inhibition at 30 µM [2]: 51 to 75%

O=C(CCn1ccnc1)Nc1nc(-c2ccccn2)nc2sccc12
inhibition at 30 µM [2]: 76 to 100%

Oc1cccc(-c2csc3c(O)nc(-c4ccccn4)nc23)n1
inhibition at 10 µM [3]: 76 to 100%

COCC(C)Nc1nc(-c2ncccn2)nc2sc(-c3ccncc3)c(-c3ccccc3)c12 (stereo not shown)
inhibition at 10 µM [3]: 51 to 75%

Cc1cccc(-c2c(-c3ccccc3)sc3c(O)nc(-c4nccn4C)nc23)c1
inhibition at 10 µM [3]: 25 to 50%

COc1ccc(-c2c(-c3ccccc3)sc3c(O)nc(-c4cccn4C)nc23)cn1
inhibition at 10 µM [3]: 76 to 100% | IC50 ([3]; MIA PaCa-2, same assay as % inhibition: alternate conditions): 501 to 1000 nM

COc1ccnc(-c2nc(O)c3c(C#N)csc3n2)c1
inhibition at 20 µM (Rho-A): 25 to 50% | inhibition at 20 µM (Rac-1): 51 to 75%

COC1CN=C(CNC(=O)c2cc3nc(-c4ccccn4)nc(O)c3s2)NC1=O (stereo not shown)
inhibition at 20 µM (Rho-A): 51 to 75% | inhibition at 20 µM (Rac-1): 51 to 75% | inhibition at 20 µM [4]: 25 to 50%

COc1ccc(COC[C@H]2O[C@@H](c3csc4c(=O)[nH]c(-c5ccccn5)nc34)[C@H](O)[C@@H]2O)cc1
inhibition at 20 µM (Rho-A): 76 to 100% | inhibition at 20 µM (Rac-1): 51 to 75%
